Values quoted from earlier work as cited in patent US20230303474A1, “TOTAL SYNTHESES OF SPECIALIZED PRO-RESOLVING MEDIATORS (SPMS), STRUCTURAL ISOMERS AND STRUCTURAL ANALOGS” (UNIVERSITÉ LAVAL, priority 2020, published 2023).

Tested on: skeletal muscle cells
Details: background statement citing ref. 19

| SMILES | release of the prototypic myokine interleukin-6 (IL-6) |
| --- | --- |
| CC/C=C\C[C@H](O)\C=C/C=C/C=C/[C@H](O)C/C=C\C/C=C\CCC(=O)O [PD1, (4Z,7Z,10R,11E,13E,15Z,17S,19Z)-10,17-dihydroxydocosa-4,7,11,13,15,19-hexaenoic acid] | ineffective |
| CC/C=C\C[C@H](O)/C=C/C=C\C=C\[C@@H](O)C/C=C\C/C=C\CCC(=O)O [PDX, (4Z,7Z,10S,11E,13Z,15E,17S,19Z)-10,17-dihydroxydocosa-4,7,11,13,15,19-hexaenoic acid] | induce the release |
